Measured values: patent US9295665B2, “Inhibition of neovascularization by simultaneous inhibition of prostanoid IP and EP4 receptors” (ALLERGAN, INC., priority 2013, dated 2016)

Tests used:
IP receptor [1] = target: T1, IP receptor (Homo sapiens, UniProt P43119); assay: VEGF secretion in TNFα-stimulated human macrophages (IP agonist / IP antagonist)
Description: (§1) Histogram ordering (both panels, left to right): No stimulus; vehicle; 0.1 nM; 1 nM; 10 nM; 100 nM; 1000 nM of agonist.

IP receptor [2] = target: T1, IP receptor; assay: Cellular Dielectric Spectroscopy (impedance) in human retinal microvascular endothelial cells, IP agonist; format: cell-based; parameters: TNFα-stimulated human macrophages, obtained from individual donors; endogenous in cells; host or cells: TNFα-stimulated human macrophages from individual donors; conditions: HRMECs, normalized to PGE2 at 10 μM; read-out: EC50, change in impedance
Description: Cellular dielectric spectroscopy, as known in the art, was employed to determine EC50 levels for EP4 agonist and IP agonist in human retinal microvascular endothelial cells (HRMECs). […].
Cellular Dielectric Spectroscopy (CDS) is a label-free technology to measure the changes in impedance of cells in response to receptor stimulation. HRMEC cells were seeded at on 96 well plates (CDS plates) coated with fibronectin and incubated for 24 hrs at 37° C., 5% CO2. On the day of the experiment, the culture medium was replaced by HBSS, BSA 1% and incubated for 1 h at 28° C. Compounds were then added and the signal was monitored for 10 minutes at 28° C. Compounds were tested at the following final concentrations in assay buffer containing 0.1% DMSO: 1E-12, 1E-11, 1E-10, 1E-9, 1E-8, 1E-7, 1E-6, and 1E-5M. The background signal (buffer only) was systematically subtracted to the signal in order to determine the specific signal. The effect of EP4 agonist Formula V and IP agonist Cicaprost were normalized to the signal of the positive control PGE2 at 10 μM. All data were generated in duplicate.

EP4 receptor = EP4 receptor (Homo sapiens, UniProt P35408); assay: VEGF secretion in TNFα-stimulated human macrophages (EP4 agonist / EP4 antagonist); conditions: 100 nM PGE2, TNFα-stimulated human macrophages from individual donors, 1, 3, 10 μM antagonist, n=3
Sequence of EP4 receptor (P35408 whole entry): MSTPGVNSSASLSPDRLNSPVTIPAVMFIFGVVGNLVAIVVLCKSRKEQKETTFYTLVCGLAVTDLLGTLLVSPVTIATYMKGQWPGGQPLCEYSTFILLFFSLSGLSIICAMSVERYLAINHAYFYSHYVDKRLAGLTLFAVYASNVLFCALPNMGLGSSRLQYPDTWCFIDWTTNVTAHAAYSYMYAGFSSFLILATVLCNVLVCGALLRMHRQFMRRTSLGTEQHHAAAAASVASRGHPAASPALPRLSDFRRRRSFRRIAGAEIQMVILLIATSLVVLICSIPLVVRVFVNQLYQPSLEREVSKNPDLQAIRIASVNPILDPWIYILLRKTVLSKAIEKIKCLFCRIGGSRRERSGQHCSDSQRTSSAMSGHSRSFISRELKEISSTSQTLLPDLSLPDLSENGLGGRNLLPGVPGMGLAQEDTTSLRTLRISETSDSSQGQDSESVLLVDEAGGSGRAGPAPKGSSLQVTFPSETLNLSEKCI
Description: as §1

T1 sequence (P43119 whole entry): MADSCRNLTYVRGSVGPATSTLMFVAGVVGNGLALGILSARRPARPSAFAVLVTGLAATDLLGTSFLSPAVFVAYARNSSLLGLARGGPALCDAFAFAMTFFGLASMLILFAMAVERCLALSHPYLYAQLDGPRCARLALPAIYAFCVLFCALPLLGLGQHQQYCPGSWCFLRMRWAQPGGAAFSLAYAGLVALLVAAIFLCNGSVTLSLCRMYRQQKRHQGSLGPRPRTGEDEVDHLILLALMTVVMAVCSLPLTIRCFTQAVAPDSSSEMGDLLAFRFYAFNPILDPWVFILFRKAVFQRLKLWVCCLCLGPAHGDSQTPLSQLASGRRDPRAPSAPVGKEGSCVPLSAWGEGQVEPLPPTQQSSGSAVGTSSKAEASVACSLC

CC(C)Oc1ccc(Cc2ccc(NC3=NCCN3)cc2)cc1 [Formula I]
Inhibition of Cicaprost-induced VEGF secretion (IP receptor [1]; 100 nM Cicaprost, TNFα-stimulated human macrophages from individual donors, 1, 3, 10 μM antagonist, n=2): dose dependently inhibiting

CCC#CC[C@H](C)[C@H](O)C#C[C@@H]1[C@H]2C/C(=C/COCC(=O)O)C[C@H]2C[C@H]1O [Cicaprost, cicaprost]
EC50 (IP receptor [1]): 2.3 nM | EC50 (IP receptor [2]): 18 nM

CCOc1c2c(c(OCC)c3ccccc13)C(=O)N(c1ccc(CC(=O)NS(=O)(=O)c3ccccc3)cc1)C2 [Formula IV]
Inhibition of PGE2-induced VEGF secretion (EP4 receptor): dose dependently inhibiting
